Test results: US20090069324A1, “CHEMICAL INHIBITORS OF BFL-1 AND RELATED METHODS” (The Burnham Institute, priority 2007, published 2009)

How the values were obtained:
[1] = target: T1, Bfl-1 (Homo sapiens, UniProt Q16548); assay: Bfl-1 TR-FRET assay (FITC-Bid, Tb-anti-GST antibody); type: binding; settings: Tables 3-5; read-out: Bfl-1 TR FRET IC50
T1 construct: lacking their C-terminal transmembrane domains (approximately last 20 amino-acids); made in house; host or cells: XL-1 Blue cells (E. coli), pGEX 4T-1
T1 sequence (Q16548 1-155 limits assumed): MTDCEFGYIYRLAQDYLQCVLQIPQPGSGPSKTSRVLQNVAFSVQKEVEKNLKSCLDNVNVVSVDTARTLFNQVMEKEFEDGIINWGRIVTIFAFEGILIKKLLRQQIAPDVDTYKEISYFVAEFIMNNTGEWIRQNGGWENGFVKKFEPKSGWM
Method: TR-FRET assay. For confirmation of FPA results, a TR-FRET assay utilizing terbium- (Tb-) labeled anti-GST antibody (Th-Ab) was developed. […] The reaction mixture was preincubated for 1 h, and TR-fluorescence (TRF) was measured on an M5 plate reader (Molecular Devices) using excitation at 340 nm and emission at […]. The measurements were averaged from 5 readings during 1 ms after an initial delay 0.1 ms. TR-FRET signal was calculated as the ratio of TR-Fluorescence at 520 nm to TR-Fluorescence at […].
For Bfl-1 TR-FRET assays, Bfl-1 protein and FITC-Bid peptide (FITC-Ahx-[…]) (SEQ ID NO: 1) were utilized. Terbium-anti-GST antibody (Tb-anti-GST Ab) was obtained from Invitrogen (San Diego Calif.). The assay buffer contained 25 mM Bis-Tris, pH 7.0, 1 mM TCEP, and 0.005% Tween 20. The Tb-Ab buffer contained 2.5 nM Tb-anti-GST antibody in assay buffer. The Bfl-1/Th-Ab working solution contained 5 nM Bfl-1 in Th-Ab assay buffer. The solution was prepared fresh and kept on ice prior to use. The FITC-Bid working solution contained 5.6 nM FITC-Bid in assay buffer.
For the Bfl-1 TR-FRET dose-response screening protocol, dose-response curves contained 10 concentrations of compounds obtained using 2-fold serial dilution. Compounds were serially diluted in 100% DMSO, and then diluted with water to 10% final DMSO concentration. A 4 μl aliquot of compounds in 10% DMSO was transferred into columns 3-22 of Greiner 384-well white small-volume plates. Columns 1-2 and 23-24 contained 4 μL of 10% DMSO.
Columns 1-2 were reserved for positive controls, and 8 μL of Th-Ab buffer was added using a WellMate bulk dispenser (Matrix). An aliquot of 8 μL of Bfl-1/Th-Ab working solution was added to columns 3-24 of Greiner 384 well white plates using a WellMate bulk dispenser (Matrix). Columns 23-24 represented negative control wells. Plates were incubated for 1 h at 4° C. An 8 μL aliquot of freshly prepared FITC-Bid working solution was added to the whole plate using WellMate bulk dispenser (Matrix). Plates were incubated for 4 h at room temperature protected from direct light. Fluorescence was measured on the M5 plate reader (excitation: 340 nm, emission: 490 and 520 nm, cutoff: 475 and 515 nm, respectively) in Time Resolved (TR) mode with signal integrated for 1 ms after initial delay of 0.1 ms. TR-FRET signal was calculated as the ratio of TR-Fluorescence at 520 nm to TR-Fluorescence at 490 nm. Data analysis was performed using a sigmoidal dose-response equation through non-linear regression.

[2] = Plasma stability; type: in vitro ADME; settings: fresh rat plasma, 37.5° C.
Method: (§1) CID-779754 (MLS-0067130) has a metabolic half life of >60 min in the presence of rat liver microsomes when incubated at 37.5° C. (FIG. 6A), with 64% of the compound remaining at 1 hour. The plasma stability of CID-779754 is also good, with 79% remaining after incubating at 37.5° C. for 1 hour in fresh rat plasma (FIG. 6B).

[3] = Microsomal stability; type: in vitro ADME; settings: rat liver microsomes, 37.5° C.
Method: as §1

[4] = system: human mast cells; assay: Primary mast cell survival assay (activation-induced survival); type: cell-based
Method: To validate the biological activity of the probe in a cellular readout that is Bfl-1 dependent, CID-779754 was tested in an assay measuring the effect of compounds on primary mast cell survival.
The effect of a Bfl-1 inhibitor at, for example, 1 μM is tested on CBMCs derived from, for example, 12 different individuals. CBMCs are activated by aggregation of the high-affinity IgE-receptor (FcεRI)±CID-779754. Mast cells are cultured with or without IgE crosslinking (IgECL) agent, without or with Bfl-1 inhibitor. The percentage cell survival upon IgE-receptor activation are compared to cells not activated and the delta survival is calculated. Cell survival is measured by LDH release and data were presented as % difference between cells cultured with or without IgECL.

With `CN(C)C1=C(Cl)C(=O)N(c2ccc(Cl)c(Cl)c2)C1=O` [CID-779754, 3-chloro-1-(3,4-dichlorophenyl)-4-(dimethylamino)-1H-pyrrole-2,5-dione] the IC50 [1] was 570 nM, the “remaining after incubating for 1 hour” value [2] was 79% and the “compound remaining at 1 hour” value [3] was 64%. The half-life ([3]; read-out: metabolic half life) was over 60 min and the “effect on activation-induced survival of mast cells” value [4] was “inhibited the activation-induced survival of human mast cells”.
